Test results published in US4921984A, “Novel platinum complexes” (Nippon Kayaku Kabushiki Kaisha, priority 1985, dated 1990).

What was measured:
[1] = system: mouse leukemia L1210 cells; experiment: Growth inhibition test on cultured mouse leukemia L1210 cells; type: cell-based; details: RPMI 1640 with 10% fetal calf serum
Experimental: Mouse leukemia L1210 cells were cultured in a RPMI 1640 medium containing 10% of fetal calf serum.

mouse leukemia L1210 = experiment: Antitumor activity test on mouse leukemia L1210 in vivo; details: for max (T/C): L1210, average survival time treated/control ×100, i.p. once a day for 5 days; for Opt. dose: L1210, dose giving max (T/C); for Opt. dose / LD50: i.p. once a day for 5 days; for LD50: L1210-bearing CDF1 mice
Experimental: Mice of compound-non-treated group (control group) were administered with physiological saline solution in the same manner. The average survival times of the compound-treated group and the control group (abbreviated as T and C, respectively) were measured and T/C percentage (T/C×100) was calculated from the following equation. [formula]
In Table 4, max (T/C) means the maximum value of T/C and optimum dose (opt. dose) means an administration amount giving the max namely, an optimum administration amount.

Compound	IC50 [1]	max (T/C) (mouse leukemia L1210)	Opt. dose (mouse leukemia L1210)	LD50 (mouse leukemia L1210)	Solubility in physiological saline solution	Solubility in water
CC1CCC[NH2+][Pt-2]([Cl])([Cl])[NH2+]1 (racemic) [Compound No. 4]	0.20 µg/mL	225%	2 mg/kg	2.4 mg/kg	> 2 mg/ml	–
CC1CCC[NH2+][Pt-2]2([NH2+]1)[O]C(=O)C(C)(C)C(=O)[O]2 (racemic) [Compound No. 8, cis-Dimethylmalonato-1-methyl-1,4-butanediamine platinum]	0.90 µg/mL	189%	64 mg/kg	–	–	–
CCC1C(=O)[O][Pt-2]2([NH2+]CCCC(C)[NH2+]2)[O]C1=O (racemic) [Compound No. 9, cis-Ethylmalonato-1-methyl-1,4-butanediamine platinum]	2.40 µg/mL	222%	64 mg/kg	96.0 mg/kg	–	> 10000 µg/mL
CCC1CCC[NH2+][Pt-2]([Cl])([Cl])[NH2+]1 (racemic) [Compound No. 10, cis-Dichloro-1-ethyl-1,4-butanediamine platinum]	0.35 µg/mL	210%	4 mg/kg	6.0 mg/kg	> 2 mg/ml	–
CC1CC[NH2+][Pt-2]([Cl])([Cl])[NH2+]C1 (racemic) [Compound No. 13, cis-Dichloro-2-methyl-1,4-butanediamine platinum]	0.10 µg/mL	187%	2 mg/kg	4.2 mg/kg	> 2 mg/ml	–
CC1CC[NH2+][Pt-2]2([NH2+]C1)[O]C(=O)CC(=O)[O]2 (racemic) [Compound No. 14, cis-Malonato-2-methyl-1,4-butanediamine platinum]	0.74 µg/mL	346%	32 mg/kg	–	–	–
CC1CC[NH2+][Pt-2]2([NH2+]C1)[O]C(=O)C1(CCOCC1)C(=O)[O]2 (racemic) [Compound No. 16, cis-4-Oxacyclohexane-1,1-dicarboxylato-2-methyl-1,4-butanediamine platinum]	0.43 µg/mL	167%	8 mg/kg	12.0 mg/kg	–	> 15000 µg/mL
CC1CC[NH2+][Pt-2]2([NH2+]C1)[O]C(=O)C(C)(C)C(=O)[O]2 (racemic) [Compound No. 17, cis-Dimethylmalonato-2-methyl-1,4-butanediamine platinum]	0.50 µg/mL	238%	32 mg/kg	–	–	–
CCC1C(=O)[O][Pt-2]2([NH2+]CCC(C)C[NH2+]2)[O]C1=O (racemic) [Compound No. 18, cis-Ethylmalonato-2-methyl-1,4-butanediamine platinum]	0.84 µg/mL	264%	16 mg/kg	24.0 mg/kg	–	> 10000 µg/mL
CCC1CC[NH2+][Pt-2]([Cl])([Cl])[NH2+]C1 (racemic) [Compound No. 29, cis-Dichloro-2-ethyl-1,4-butanediamine platinum]	0.05 µg/mL	261%	2 mg/kg	3.0 mg/kg	> 2 mg/ml	–
CCC1CC[NH2+][Pt-2]2([NH2+]C1)[O]C(=O)C(=O)[O]2 (racemic) [Compound No. 30, cis-Oxalato-2-ethyl-1,4-butanediamine platinum]	0.06 µg/mL	253%	8 mg/kg	–	–	–
CCC1CC[NH2+][Pt-2]2([NH2+]C1)[O]C(=O)C(C)(C)C(=O)[O]2 (racemic) [Compound No. 33, cis-Dimethylmalonato-2-ethyl-1,4-butanediamine platinum]	0.23 µg/mL	–	–	–	–	–
[Cl][Pt-2]1([Cl])[NH2+]CCCC[NH2+]1 [Compound No. 1, cis-Dichloro-1,4-butanediamine platinum]	0.33 µg/mL	203%	2 mg/kg	4.8 mg/kg	> 2 mg/ml	–
O=C1[O][Pt-2]2([NH2+]CCCC[NH2+]2)[O]C(=O)C12CCC2 [Compound No. 2, cis-Cyclobutane-1,1-dicarboxylato-1,4-butanediamine Platinum]	0.88 µg/mL	182%	32 mg/kg	48.0 mg/kg	–	–
O=C1[O][Pt-2]2([NH2+]CCCC[NH2+]2)[O]C(=O)C12CCOCC2 [Compound No. 3, cis-4-Oxacyclohexane-1,1-dicarboxylato-1,4-butanediamine platinum]	0.65 µg/mL	132%	8 mg/kg	8.4 mg/kg	–	> 10000 µg/mL
CC(N)CCCN.O=C([O-])C(=O)[O-].[Pt+2] (stereo not drawn) [Compound No. 5, cis-Oxalato-1-methyl-1,4-butanediamine platinum]	0.29 µg/mL	273%	4 mg/kg	–	–	–

Compound	IC50 [1]	max (T/C) (mouse leukemia L1210)	Opt. dose (mouse leukemia L1210)	LD50 (mouse leukemia L1210)	Solubility in physiological saline solution	Solubility in water
CC(N)CCCN.O=C([O-])CC(=O)[O-].[Pt+2] (stereo not drawn) [Compound No. 6, cis-Malonato-1-methyl-1,4-butanediamine platinum]	0.76 µg/mL	359%	32 mg/kg	–	–	–
CC(N)CCCN.O=C([O-])C1(C(=O)[O-])CCC1.[Pt+2] [Compound No. 7, cis-Cyclobutane-1,1-dicarboxylato-1-methyl-1,4-butanediamine platinum]	2.80 µg/mL	176%	64 mg/kg	–	–	–
CCC(N)CCCN.O=C([O-])C1(C(=O)[O-])CCC1.[Pt+2] [Compound No. 11, cis-Cyclobutane-1,1-dicarboxylato-1-ethyl-1,4-butanediamine platinum]	4.70 µg/mL	139%	64 mg/kg	–	–	> 3000 µg/mL
CCC(N)CCCN.O=C([O-])C1(C(=O)[O-])CCOCC1.[Pt+2] [Compound No. 12, cis-4-Oxacyclohexane-1,1-dicarboxylato-1-ethyl-1,4-butanediamine platinum]	1.05 µg/mL	181%	64 mg/kg	–	–	–
CC1(C)CC[NH2+][Pt-2]([Cl])([Cl])[NH2+]C1 [Compound No. 19, cis-Dichloro-2,2-dimethyl-1,4-butanediamine platinum]	0.20 µg/mL	359%	4 mg/kg	6.0 mg/kg	> 2 mg/ml	–
CC1(C)CC[NH2+][Pt-2]2([NH2+]C1)[O]C(=O)C(=O)[O]2 [Compound No. 20, cis-Oxalato-2,2-dimethyl-1,4-butanediamine platinum]	0.37 µg/mL	272%	8 mg/kg	–	–	–
CC1(C)CC[NH2+][Pt-2]2([NH2+]C1)[O]C(=O)CC(=O)[O]2 [Compound No. 21, cis-Malonato-2,2-dimethyl-1,4-butanediamine platinum]	0.72 µg/mL	301%	32 mg/kg	–	–	–
CC(C)(CN)CCN.O=C([O-])C1(C(=O)[O-])CCC1.[Pt+2] [Compound No. 22, cis-Cyclobutane-1,1-dicarboxylato-2,2-dimethyl-1,4-butanediamine platinum]	2.20 µg/mL	320%	128 mg/kg	–	–	> 3000 µg/mL
CC1(C)CC[NH2+][Pt-2]2([NH2+]C1)[O]C(=O)C1(CCOCC1)C(=O)[O]2 [Compound No. 23, cis-4-Oxacyclohexane-1,1-dicarboxylato-2,2-dimethyl-1,4-butanediamine platinum]	0.44 µg/mL	159%	32 mg/kg	–	–	> 3000 µg/mL
CC1(C)CC[NH2+][Pt-2]2([NH2+]C1)[O]C(=O)C(C)(C)C(=O)[O]2 [Compound No. 24, cis-Dimethylmalonato-2,2-dimethyl-1,4-butanediamine platinum]	0.78 µg/mL	253%	64 mg/kg	–	–	–
CC1(C)CCC[NH2+][Pt-2]2([NH2+]1)[O]C(=O)C(=O)[O]2 [Compound No. 26, cis-Oxalato-1,1-dimethyl-1,4-butanediamine platinum]	0.30 µg/mL	–	–	–	–	–
CC1(C)CCC[NH2+][Pt-2]2([NH2+]1)[O]C(=O)C1(CCC1)C(=O)[O]2 [Compound No. 27, cis-Cyclobutane-1,1-dicarboxylato-1,1-dimethyl-1,4-butanediamine platinum]	–	–	–	–	–	> 10000 µg/mL
CC(C)(C(=O)[O-])C(=O)[O-].CC(C)(N)CCCN.[Pt+2] [Compound No. 28, cis-Dimethylmalonato-1,1-dimethyl-1,4-butanediamine platinum]	4.50 µg/mL	–	–	–	–	–
CCC(CN)CCN.O=C([O-])CC(=O)[O-].[Pt+2] (stereo not drawn) [Compound No. 31, cis-Malonato-2-ethyl-1,4-butanediamine platinum]	0.66 µg/mL	–	–	–	–	–
CCC(CN)CCN.O=C([O-])C1(C(=O)[O-])CCC1.[Pt+2] [Compound No. 32, cis-Cyclobutane-1,1-dicarboxylato-2-ethyl-1,4-butanediamine platinum]	0.67 µg/mL	275%	32 mg/kg	–	–	–
